For orientation: koff means the first-order rate constant of dissociation.

Molecules are shown by their SMILES.

Sphingosine 1-phosphate receptor 2, sequence (O95136 whole entry): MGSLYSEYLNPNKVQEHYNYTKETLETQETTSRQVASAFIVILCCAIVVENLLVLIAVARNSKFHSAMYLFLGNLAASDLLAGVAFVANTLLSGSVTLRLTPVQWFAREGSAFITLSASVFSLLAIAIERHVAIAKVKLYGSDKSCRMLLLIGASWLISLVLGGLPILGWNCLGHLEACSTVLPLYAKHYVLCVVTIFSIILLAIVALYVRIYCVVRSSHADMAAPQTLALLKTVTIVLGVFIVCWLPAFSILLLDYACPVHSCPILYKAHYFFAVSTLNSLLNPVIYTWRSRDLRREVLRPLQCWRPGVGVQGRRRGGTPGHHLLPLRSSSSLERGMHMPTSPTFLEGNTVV

This assay has as its target Sphingosine 1-phosphate receptor 2 (Homo sapiens, UniProt O95136). Nature of the assay: Binding affinity to S1PR2 (unknown origin) assessed as dissociation constant measured for 60 secs by surface plasmon resonance assay. (SPR reads the build-up and loss of mass on a sensor chip optically.)
As for `CNc1cc(C)nc(NNC(=O)Nc2cc(Cl)nc(Cl)c2)n1`, the koff amounted to 0.236 s⁻¹. `O=C(Nc1cc(Cl)nc(Cl)c1)Nc1cc(Cl)nc(OC2CCCC2)c1`: the koff amounted to 0.179 s⁻¹.

`CC(C)Oc1cc(NC(=O)Nc2cc(Cl)nc(Cl)c2)cc(Cl)n1`: the koff was determined as 0.119 s⁻¹. As to `O=C(Nc1cc(Cl)nc(Cl)c1)Nc1cc2ccc(-c3ccccc3)cn2n1`, the koff stood at 0.201 s⁻¹.

As to `O=C(Nc1cc(Cl)cc(Cl)c1)Nc1cc(Cl)nc(Cl)c1`, the koff is 0.116 s⁻¹. With `O=C(NNc1nc(Nc2ccccc2)nc(N2CCCC2)n1)Nc1cc(Cl)nc(Cl)c1`, the koff was 0.133 s⁻¹. Take `Cn1ccc2c(-c3ccccc3)nc(NNC(=O)Nc3cc(Cl)nc(Cl)c3)nc21`: the off-rate (koff) was found to be 0.136 s⁻¹. Regarding `Cc1nn(C)c2nc(NNC(=O)Nc3cc(Cl)nc(Cl)c3)cc(C(C)C)c12`, the koff turned out to be 0.161 s⁻¹.

Consider `O=C(Nc1cc(Cl)nc(Cl)c1)Nc1cc2ccccn2n1`, for which the koff stood at 0.116 s⁻¹. Next, `CCOc1cc(NC(=O)Nc2cc(Cl)nc(Cl)c2)cc(Cl)n1`: 0.102 s⁻¹; `COc1cc(NC(=O)Nc2cc(Cl)nc(Cl)c2)cc(Cl)n1`: 0.219 s⁻¹. For the compound `CN1CCN(C(=O)Nc2cc(Cl)nc(Cl)c2)CC1`, the koff amounted to 0.106 s⁻¹. For the compound `COc1ccc(-c2ccc3cc(NC(=O)Nc4cc(Cl)nc(Cl)c4)nn3c2)cc1`, the koff is 0.112 s⁻¹.

In the case of `O=C(Nc1ccnc(Cl)c1)Nc1cc(Cl)nc(Cl)c1`, the koff was determined as 0.201 s⁻¹. Consider `CN(C)c1nc(NNC(=O)Nc2cc(Cl)nc(Cl)c2)nc2c1ccn2C`, for which the koff amounted to 0.102 s⁻¹. Take `COc1c(Cl)cc(NC(=O)Nc2cc(Cl)nc(Cl)c2)cc1Cl`: the koff is 0.312 s⁻¹.

As to `O=C(NNc1nc(N2CCOCC2)c2ccn(C3CC3)c2n1)Nc1cc(Cl)nc(Cl)c1`, the koff amounted to 0.133 s⁻¹. Next, `O=C(Nc1cc(Cl)nc(Cl)c1)Nc1cc(Cl)nc(Cl)c1`: 0.697 s⁻¹. Regarding `Cc1cc(NC(=O)Nc2cc(Cl)nc(Cl)c2)cc(C)n1`, the koff stood at 0.146 s⁻¹. With `Cc1cc(NC(=O)Nc2cc(Cl)nc(Cl)c2)n(C)n1`, the koff was 0.177 s⁻¹.

Values taken from BindingDB's records for doi:10.1016/j.ejmech.2021.113775 (Laboratory For Marine Drugs and Bioproducts of Qingdao …, 2021).
